# Square brackets hold non-standard residues; d marks the D form. Peptide text beside a SMILES is read from it. NMeI = CC[C@H](C)[C@H](NC)C(=O)O; NMeL = CN[C@@H](CC(C)C)C(=O)O; NMeK = CN[C@@H](CCCCN)C(=O)O
# Legend:
# Klebsiella pneumoniae [1] = test: Antimicrobial activity against Klebsiella pneumoniae ATCC 700603 assessed as reduction in microbial growth incubated for 18 hrs by Mueller-Hinton Broth based microdilution assay; type: functional
# Pseudomonas aeruginosa [2] = test: Antimicrobial activity against Pseudomonas aeruginosa ATCC 27853 assessed as reduction in microbial growth incubated for 18 hrs by Mueller-Hinton Broth based microdilution assay; type: functional
# Staphylococcus aureus [3] = test: Antibacterial activity against Staphylococcus aureus ATCC 25923 assessed as reduction in bacterial growth incubated for 18 hrs by Mueller-Hinton Broth based microdilution assay; type: functional
# Bacillus subtilis [4] = test: Antimicrobial activity against Bacillus subtilis ATCC 23857 assessed as reduction in microbial growth incubated for 18 hrs by Mueller-Hinton Broth based microdilution assay; type: functional
# Escherichia coli [5] = test: Antibacterial activity against Escherichia coli ATCC 25922 assessed as reduction in bacterial growth incubated for 18 hrs by Mueller-Hinton Broth based microdilution assay; type: functional
# Bacillus subtilis [6] = test: Antibacterial activity against Bacillus subtilis ATCC 23857 assessed as reduction in bacterial growth incubated for 18 hrs by CLSI-based Mueller-Hinton broth dilution method; type: functional
# Staphylococcus aureus [7] = test: Antimicrobial activity against Staphylococcus aureus ATCC 25923 assessed as reduction in microbial growth incubated for 18 hrs by CLSI-based Mueller-Hinton broth dilution method; type: functional
# Escherichia coli [8] = test: Antibacterial activity against Escherichia coli ML-35 ATCC 43837 assessed as reduction in bacterial growth incubated for 18 hrs by CLSI-based Mueller-Hinton broth dilution method; type: functional
# [9] = tested on: Staphylococcus epidermidis; test: Antibacterial activity against Staphylococcus epidermidis ATCC 12228 assessed as reduction in bacterial growth incubated for 18 hrs by CLSI-based Mueller-Hinton broth dilution method; type: functional
# Klebsiella pneumoniae [10] = test: Antibacterial activity against Klebsiella pneumoniae ATCC 700603 assessed as reduction in bacterial growth incubated for 18 hrs by CLSI-based Mueller-Hinton broth dilution method; type: functional
# Erythrocyte = test: Hemolytic activity in mouse erythrocyte assessed as hemolysis incubated for 1 hr by microplate reader analysis; type: toxicity, cell-based
# Acinetobacter baumannii = test: Antibacterial activity against Acinetobacter baumannii ATCC 19606 assessed as reduction in bacterial growth incubated for 18 hrs by CLSI-based Mueller-Hinton broth dilution method; type: functional
# Pseudomonas aeruginosa [11] = test: Antibacterial activity against Pseudomonas aeruginosa ATCC 27853 assessed as reduction in bacterial growth incubated for 18 hrs by CLSI-based Mueller-Hinton broth dilution method; type: functional
SMILES,MIC (Klebsiella pneumoniae [1]),MIC (Pseudomonas aeruginosa [2]),MIC (Staphylococcus aureus [3]),MIC (Bacillus subtilis [4]),MIC (Escherichia coli [5]),MIC (Bacillus subtilis [6]),MIC (Staphylococcus aureus [7]),MIC (Escherichia coli [8]),MIC [9],MIC (Klebsiella pneumoniae [10]),MIC (Acinetobacter baumannii),MIC (Pseudomonas aeruginosa [11]),HC10 (Erythrocyte)
CCCCCCCCCCCCC(=O)NCCCC[C@@H](NC(=O)[C@@H](NC(=O)[C@H](CCCNC(=N)N)NC(=O)[C@@H](CCCCN)NC(=O)[C@H](CC(C)C)NC(=O)[C@H](CC(C)C)NC(=O)CN)[C@@H](C)CC)C(=O)N[C@H](C(=O)N[C@@H](CC(C)C)C(=O)N[C@@H](CC(C)C)C(N)=O)[C@@H](C)O,–,–,–,–,–,2 µM,4 µM,16 µM,4 µM,16 µM,4 µM,8 µM,32 µM
CC[C@H](C)[C@H](NC(=O)[C@H](CCCNC(=N)N)NC(=O)[C@H](CCCCN)NC(=O)[C@H](CC(C)C)NC(=O)[C@H](CC(C)C)N(C)C(=O)CN)C(=O)N[C@@H](CCCCN)C(=O)N[C@H](C(=O)N[C@@H](CC(C)C)C(=O)N[C@@H](CC(C)C)C(N)=O)[C@@H](C)O (H-G[NMeL]LKRIKTLL-NH2),> 128 µM,32 µM,> 128 µM,16 µM,> 128 µM,–,–,–,–,–,–,–,–
CC[C@H](C)[C@H](NC(=O)[C@H](CCCNC(=N)N)NC(=O)[C@H](CCCCN)N(C)C(=O)[C@H](CC(C)C)NC(=O)[C@H](CC(C)C)NC(=O)CN)C(=O)N(C)[C@@H](CCCCN)C(=O)N[C@H](C(=O)N[C@@H](CC(C)C)C(=O)N[C@@H](CC(C)C)C(N)=O)[C@@H](C)O (H-GLL[NMeK]RI[NMeK]TLL-NH2),> 128 µM,128 µM,> 128 µM,> 128 µM,> 128 µM,–,–,–,–,–,–,–,–
CC[C@H](C)[C@H](NC(=O)[C@H](CCCNC(=N)N)NC(=O)[C@H](CCCCN)NC(=O)[C@H](CC(C)C)NC(=O)[C@H](CC(C)C)NC(=O)CN)C(=O)N(C)[C@@H](CCCCN)C(=O)N[C@H](C(=O)N[C@@H](CC(C)C)C(=O)N[C@@H](CC(C)C)C(N)=O)[C@@H](C)O (H-GLLKRI[NMeK]TLL-NH2),> 128 µM,128 µM,> 128 µM,128 µM,> 128 µM,–,–,–,–,–,–,–,–

# The next lines start with results.
MIC (Klebsiella pneumoniae [1]),MIC (Pseudomonas aeruginosa [2]),MIC (Staphylococcus aureus [3]),MIC (Bacillus subtilis [4]),MIC (Escherichia coli [5]),MIC (Bacillus subtilis [6]),MIC (Staphylococcus aureus [7]),MIC (Escherichia coli [8]),MIC [9],MIC (Klebsiella pneumoniae [10]),MIC (Acinetobacter baumannii),MIC (Pseudomonas aeruginosa [11]),SMILES,HC10 (Erythrocyte)
> 128 µM,> 128 µM,> 128 µM,> 128 µM,> 128 µM,–,–,–,–,–,–,–,CC[C@H](C)[C@H](NC(=O)[C@H](CCCNC(=N)N)NC(=O)[C@H](CCCCN)NC(=O)[C@H](CC(C)C)N(C)C(=O)[C@H](CC(C)C)NC(=O)CN)C(=O)N[C@@H](CCCCN)C(=O)N[C@H](C(=O)N(C)[C@@H](CC(C)C)C(=O)N[C@@H](CC(C)C)C(N)=O)[C@@H](C)O (H-GL[NMeL]KRIKT[NMeL]L-NH2),–
> 128 µM,28 µM,> 128 µM,128 µM,> 128 µM,–,–,–,–,–,–,–,CC[C@H](C)[C@H](NC(=O)[C@H](CCCNC(=N)N)NC(=O)[C@H](CCCCN)NC(=O)[C@H](CC(C)C)NC(=O)[C@H](CC(C)C)NC(=O)CN)C(=O)N[C@@H](CCCCN)C(=O)N[C@H](C(=O)N(C)[C@@H](CC(C)C)C(=O)N[C@@H](CC(C)C)C(N)=O)[C@@H](C)O (H-GLLKRIKT[NMeL]L-NH2),–
> 128 µM,128 µM,> 128 µM,> 128 µM,> 128 µM,–,–,–,–,–,–,–,CC[C@H](C)[C@H](NC(=O)[C@H](CCCNC(=N)N)NC(=O)[C@H](CCCCN)NC(=O)[C@H](CC(C)C)N(C)C(=O)[C@H](CC(C)C)N(C)C(=O)CN)C(=O)N[C@@H](CCCCN)C(=O)N[C@H](C(=O)N(C)[C@@H](CC(C)C)C(=O)N(C)[C@@H](CC(C)C)C(N)=O)[C@@H](C)O (H-G[NMeL][NMeL]KRIKT[NMeL][NMeL]-NH2),–
> 128 µM,> 128 µM,> 128 µM,128 µM,> 128 µM,–,–,–,–,–,–,–,CC[C@H](C)[C@@H](C(=O)N[C@@H](CCCCN)C(=O)N[C@H](C(=O)N[C@@H](CC(C)C)C(=O)N[C@@H](CC(C)C)C(N)=O)[C@@H](C)O)N(C)C(=O)[C@H](CCCNC(=N)N)NC(=O)[C@H](CCCCN)NC(=O)[C@H](CC(C)C)N(C)C(=O)[C@H](CC(C)C)NC(=O)CN (H-GL[NMeL]KR[NMeI]KTLL-NH2),–
